Patent US12479843B2, “Spiro ring-containing quinazoline compounds” (WIGEN BIOMEDICINE TECHNOLOGY (SHANGHAI) CO., LTD., priority 2019, dated 2025)

Tests used:
[1] = test system: pERK level in H358 cells; assay: pERK and ERK protein content assay in H358 cells (ELISA); format: cell-based; conditions: Homo sapiens, NCI-H358, compound 1 μM, 24 h, pERK/ERK ratio compared with DMSO group, read-out: Inhibition rate (%) of pERK level
Procedure, shortened: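 Percent inhibition of pERK relative to DMSO, from the ELISA pERK/ERK ratio in lysed H358 cells. Compound applied at 1 μM for 24 h after one day of growth.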

[2] = test system: H358 cells; assay: Antiproliferative activity against H358 cells (Cell Titer Glow, ultra-low attachment plate); format: cell-based; conditions: Homo sapiens, NCI-H358, 72 h, 96-well ultra-low attachment plate, three days after addition of compound, Cell Titer Glow
Experimental: 2500 H358 cells were seeded in a 96-well ultra-low attachment plate (corning, 7007). After one day of growth, a serially diluted compound (a maximum concentration of 5 μM, 5-fold dilution, a total of five doses) was added. Three days after the addition of the compound, Cell Titer Glow (Promega, G9681) was added to evaluate pellet growth, and the IC50 value was calculated.

SMILES: C=CC(=O)N1CC2(CCN(c3nc(N4CC(N(C)CC(F)(F)F)C4)nc4c(OCC(F)(F)F)c(-c5c(C)ccc6[nH]ncc56)c(C5CC5)cc34)CC2)C1 [Compound 167]
- inhibition at 1 µM [1]: > 90%
- IC50 [2]: 300 to 1000 nM

SMILES: C=CC(=O)N1CC2(CCN(c3nc(N4CC(N5CC(F)C5)C4)nc4c(OCC(F)(F)F)c(-c5c(C)ccc6[nH]ncc56)c(C5CC5)cc34)CC2)C1 [Compound 168]
- inhibition at 1 µM [1]: > 90%
- IC50 [2]: < 300 nM

SMILES: C=CC(=O)N1CC2(CCN(c3nc(N4CC(N5CC(F)(F)C5)C4)nc4c(OCC(F)(F)F)c(-c5c(C)ccc6[nH]ncc56)c(C5CC5)cc34)CC2)C1 [Compound 169]
- inhibition at 1 µM [1]: 50 to 90%
- IC50 [2]: 300 to 1000 nM

SMILES: C=CC(=O)N1CC2(CCN(c3nc(N4CC(N5CC(OCC)C5)C4)nc4c(OCC(F)(F)F)c(-c5c(C)ccc6[nH]ncc56)c(C5CC5)cc34)CC2)C1 [Compound 170]
- inhibition at 1 µM [1]: 50 to 90%
- IC50 [2]: 300 to 1000 nM

SMILES: C=CC(=O)N1CC2(CCN(c3nc(N4CC(N5CC[C@H](F)C5)C4)nc4c(OCC(F)(F)F)c(-c5c(C)ccc6[nH]ncc56)c(C5CC5)cc34)CC2)C1 [Compound 172]
- inhibition at 1 µM [1]: > 90%
- IC50 [2]: < 300 nM

SMILES: C=CC(=O)N1CC2(CCN(c3nc(N4CC(N5CC[C@H](OC)C5)C4)nc4c(OCC(F)(F)F)c(-c5c(C)ccc6[nH]ncc56)c(C5CC5)cc34)CC2)C1 [Compound 174]
- inhibition at 1 µM [1]: > 90%
- IC50 [2]: < 300 nM

SMILES: C=CC(=O)N1CC2(CCN(c3nc(N4CC(N5CC[C@@H](OC)C5)C4)nc4c(OCC(F)(F)F)c(-c5c(C)ccc6[nH]ncc56)c(C5CC5)cc34)CC2)C1 [Compound 175]
- inhibition at 1 µM [1]: > 90%
- IC50 [2]: < 300 nM

SMILES: C=CC(=O)N1CC2(CCN(c3nc(N4CC(N5CCC(F)(F)C5)C4)nc4c(OCC(F)(F)F)c(-c5c(C)ccc6[nH]ncc56)c(C5CC5)cc34)CC2)C1 [Compound 176]
- inhibition at 1 µM [1]: 50 to 90%
- IC50 [2]: 300 to 1000 nM

SMILES: C=CC(=O)N1CC2(CCN(c3nc(N4CC(N5CCCCC5)C4)nc4c(OCC(F)(F)F)c(-c5c(C)ccc6[nH]ncc56)c(C5CC5)cc34)CC2)C1 [Compound 177]
- inhibition at 1 µM [1]: > 90%
- IC50 [2]: < 300 nM

SMILES: C=CC(=O)N1CC2(CCN(c3nc(N4CC(N5CCC(F)CC5)C4)nc4c(OCC(F)(F)F)c(-c5c(C)ccc6[nH]ncc56)c(C5CC5)cc34)CC2)C1 [Compound 178]
- inhibition at 1 µM [1]: > 90%
- IC50 [2]: < 300 nM

SMILES: C=CC(=O)N1CC2(CCN(c3nc(N4CC(N5CCC(OC)CC5)C4)nc4c(OCC(F)(F)F)c(-c5c(C)ccc6[nH]ncc56)c(C5CC5)cc34)CC2)C1 [Compound 179]
- inhibition at 1 µM [1]: > 90%
- IC50 [2]: < 300 nM

SMILES: C=CC(=O)N1CC2(CCN(c3nc(N4CC(N5CCC(F)(F)CC5)C4)nc4c(OCC(F)(F)F)c(-c5c(C)ccc6[nH]ncc56)c(C5CC5)cc34)CC2)C1 [Compound 180]
- inhibition at 1 µM [1]: > 90%
- IC50 [2]: 300 to 1000 nM

SMILES: C=CC(=O)N1CC2(CCN(c3nc(N4CC[C@H](N5CCC5)C4)nc4c(OCC(F)(F)F)c(-c5c(C)ccc6[nH]ncc56)c(C5CC5)cc34)CC2)C1 [Compound 181]
- inhibition at 1 µM [1]: > 90%
- IC50 [2]: < 300 nM

SMILES: C=CC(=O)N1CC2(CCN(c3nc(N4CC[C@@H](N5CCC5)C4)nc4c(OCC(F)(F)F)c(-c5c(C)ccc6[nH]ncc56)c(C5CC5)cc34)CC2)C1 [Compound 182]
- inhibition at 1 µM [1]: > 90%
- IC50 [2]: < 300 nM

SMILES: C=CC(=O)N1CC2(CCN(c3nc(N4CC[C@H](N5CCCC5)C4)nc4c(OCC(F)(F)F)c(-c5c(C)ccc6[nH]ncc56)c(C5CC5)cc34)CC2)C1 [Compound 183]
- inhibition at 1 µM [1]: > 90%
- IC50 [2]: < 300 nM

SMILES: C=CC(=O)N1CC2(CCN(c3nc(N4CC[C@@H](N5CCCC5)C4)nc4c(OCC(F)(F)F)c(-c5c(C)ccc6[nH]ncc56)c(C5CC5)cc34)CC2)C1 [Compound 184]
- inhibition at 1 µM [1]: > 90%
- IC50 [2]: < 300 nM

SMILES: C=CC(=O)N1CC2(CCN(c3nc(N4CC[C@H](N(C)C)C4)nc4c(OCC(F)(F)F)c(-c5c(C)ccc6[nH]ncc56)c(C5CC5)cc34)CC2)C1 [Compound 185]
- inhibition at 1 µM [1]: > 90%
- IC50 [2]: < 300 nM

SMILES: C=CC(=O)N1CC2(CCN(c3nc(N4CC[C@@H](N(C)C)C4)nc4c(OCC(F)(F)F)c(-c5c(C)ccc6[nH]ncc56)c(C5CC5)cc34)CC2)C1 [Compound 186]
- inhibition at 1 µM [1]: > 90%
- IC50 [2]: < 300 nM

SMILES: C=CC(=O)N1CC2(CCN(c3nc(N4CC[C@H](N(C)CC)C4)nc4c(OCC(F)(F)F)c(-c5c(C)ccc6[nH]ncc56)c(C5CC5)cc34)CC2)C1 [Compound 187]
- inhibition at 1 µM [1]: > 90%
- IC50 [2]: < 300 nM

SMILES: C=CC(=O)N1CC2(CCN(c3nc(N4CC[C@@H](N(C)CC)C4)nc4c(OCC(F)(F)F)c(-c5c(C)ccc6[nH]ncc56)c(C5CC5)cc34)CC2)C1 [Compound 188]
- inhibition at 1 µM [1]: > 90%
- IC50 [2]: < 300 nM

SMILES: C=CC(=O)N1CC2(CCN(c3nc(N4CC[C@H](N(CC)CC)C4)nc4c(OCC(F)(F)F)c(-c5c(C)ccc6[nH]ncc56)c(C5CC5)cc34)CC2)C1 [Compound 189]
- inhibition at 1 µM [1]: > 90%
- IC50 [2]: < 300 nM

SMILES: C=CC(=O)N1CC2(CCN(c3nc(N4CC[C@@H](N(CC)CC)C4)nc4c(OCC(F)(F)F)c(-c5c(C)ccc6[nH]ncc56)c(C5CC5)cc34)CC2)C1 [Compound 190]
- inhibition at 1 µM [1]: > 90%
- IC50 [2]: < 300 nM

SMILES: C=CC(=O)N1CC2(CCN(c3nc(N4CC[C@H](N5CC[C@H](F)C5)C4)nc4c(OCC(F)(F)F)c(-c5c(C)ccc6[nH]ncc56)c(C5CC5)cc34)CC2)C1 [Compound 191]
- inhibition at 1 µM [1]: > 90%
- IC50 [2]: < 300 nM

SMILES: C=CC(=O)N1CC2(CCN(c3nc(N4CC[C@@H](N5CC[C@H](F)C5)C4)nc4c(OCC(F)(F)F)c(-c5c(C)ccc6[nH]ncc56)c(C5CC5)cc34)CC2)C1 [Compound 192]
- inhibition at 1 µM [1]: > 90%
- IC50 [2]: < 300 nM

SMILES: C=CC(=O)N1CC2(CCN(c3nc(N4CC[C@H](N5CC[C@@H](F)C5)C4)nc4c(OCC(F)(F)F)c(-c5c(C)ccc6[nH]ncc56)c(C5CC5)cc34)CC2)C1 [Compound 193]
- inhibition at 1 µM [1]: > 90%
- IC50 [2]: < 300 nM

SMILES: C=CC(=O)N1CC2(CCN(c3nc(N4CC[C@@H](N5CC[C@@H](F)C5)C4)nc4c(OCC(F)(F)F)c(-c5c(C)ccc6[nH]ncc56)c(C5CC5)cc34)CC2)C1 [Compound 194]
- inhibition at 1 µM [1]: > 90%
- IC50 [2]: < 300 nM

SMILES: C=CC(=O)N1CC2(CCN(c3nc(N4CC[C@H](N5CC[C@H](OC)C5)C4)nc4c(OCC(F)(F)F)c(-c5c(C)ccc6[nH]ncc56)c(C5CC5)cc34)CC2)C1 [Compound 195]
- inhibition at 1 µM [1]: > 90%
- IC50 [2]: < 300 nM

SMILES: C=CC(=O)N1CC2(CCN(c3nc(N4CC[C@@H](N5CC[C@H](OC)C5)C4)nc4c(OCC(F)(F)F)c(-c5c(C)ccc6[nH]ncc56)c(C5CC5)cc34)CC2)C1 [Compound 196]
- inhibition at 1 µM [1]: > 90%
- IC50 [2]: < 300 nM

SMILES: C=CC(=O)N1CC2(CCN(c3nc(N4CC[C@H](N5CC[C@@H](OC)C5)C4)nc4c(OCC(F)(F)F)c(-c5c(C)ccc6[nH]ncc56)c(C5CC5)cc34)CC2)C1 [Compound 197]
- inhibition at 1 µM [1]: > 90%
- IC50 [2]: < 300 nM

SMILES: C=CC(=O)N1CC2(CCN(c3nc(N4CC[C@@H](N5CC[C@@H](OC)C5)C4)nc4c(OCC(F)(F)F)c(-c5c(C)ccc6[nH]ncc56)c(C5CC5)cc34)CC2)C1 [Compound 198]
- inhibition at 1 µM [1]: > 90%
- IC50 [2]: < 300 nM

SMILES: C=CC(=O)N1CC2(CCN(c3nc(N4CC[C@H](N5CCC(F)(F)C5)C4)nc4c(OCC(F)(F)F)c(-c5c(C)ccc6[nH]ncc56)c(C5CC5)cc34)CC2)C1 [Compound 199]
- inhibition at 1 µM [1]: > 90%
- IC50 [2]: 300 to 1000 nM

SMILES: C=CC(=O)N1CC2(CCN(c3nc(N4CC[C@@H](N5CC(F)C5)C4)nc4c(OCC(F)(F)F)c(-c5c(C)ccc6[nH]ncc56)c(C5CC5)cc34)CC2)C1 [Compound 202]
- inhibition at 1 µM [1]: > 90%
- IC50 [2]: < 300 nM

SMILES: C=CC(=O)N1CC2(CCN(c3nc(N4CC[C@@H](N5CC(OC)C5)C4)nc4c(OCC(F)(F)F)c(-c5c(C)ccc6[nH]ncc56)c(C5CC5)cc34)CC2)C1 [Compound 204]
- inhibition at 1 µM [1]: > 90%
- IC50 [2]: 300 to 1000 nM

SMILES: C=CC(=O)N1CC2(CCN(c3nc(N4CC[C@H](N5CC(F)(F)C5)C4)nc4c(OCC(F)(F)F)c(-c5c(C)ccc6[nH]ncc56)c(C5CC5)cc34)CC2)C1 [Compound 205]
- inhibition at 1 µM [1]: 50 to 90%
- IC50 [2]: 300 to 1000 nM

SMILES: C=CC(=O)N1CC2(CCN(c3nc(N4CC[C@@H](N5CC(F)(F)C5)C4)nc4c(OCC(F)(F)F)c(-c5c(C)ccc6[nH]ncc56)c(C5CC5)cc34)CC2)C1 [Compound 206]
- inhibition at 1 µM [1]: 50 to 90%
- IC50 [2]: 300 to 1000 nM

SMILES: C=CC(=O)N1CC2(CCN(c3nc(N4CC[C@H](N5CCCCC5)C4)nc4c(OCC(F)(F)F)c(-c5c(C)ccc6[nH]ncc56)c(C5CC5)cc34)CC2)C1 [Compound 207]
- inhibition at 1 µM [1]: > 90%
- IC50 [2]: < 300 nM

SMILES: C=CC(=O)N1CC2(CCN(c3nc(N4CC[C@@H](N5CCCCC5)C4)nc4c(OCC(F)(F)F)c(-c5c(C)ccc6[nH]ncc56)c(C5CC5)cc34)CC2)C1 [Compound 208]
- inhibition at 1 µM [1]: > 90%
- IC50 [2]: < 300 nM

SMILES: C=CC(=O)N1CC2(CCN(c3nc(N4CC[C@H](N5CCOCC5)C4)nc4c(OCC(F)(F)F)c(-c5c(C)ccc6[nH]ncc56)c(C5CC5)cc34)CC2)C1 [Compound 209]
- inhibition at 1 µM [1]: > 90%
- IC50 [2]: < 300 nM

SMILES: C=CC(=O)N1CC2(CCN(c3nc(N4CC[C@@H](N5CCOCC5)C4)nc4c(OCC(F)(F)F)c(-c5c(C)ccc6[nH]ncc56)c(C5CC5)cc34)CC2)C1 [Compound 210]
- inhibition at 1 µM [1]: > 90%
- IC50 [2]: < 300 nM

SMILES: C=CC(=O)N1CC2(CCN(c3nc(N4CC[C@H](N5CCC(F)CC5)C4)nc4c(OCC(F)(F)F)c(-c5c(C)ccc6[nH]ncc56)c(C5CC5)cc34)CC2)C1 [Compound 211]
- inhibition at 1 µM [1]: > 90%
- IC50 [2]: < 300 nM

SMILES: C=CC(=O)N1CC2(CCN(c3nc(N4CC[C@@H](N5CCC(F)CC5)C4)nc4c(OCC(F)(F)F)c(-c5c(C)ccc6[nH]ncc56)c(C5CC5)cc34)CC2)C1 [Compound 212]
- inhibition at 1 µM [1]: > 90%
- IC50 [2]: < 300 nM
